Drawing on PubChem BioAssay (NCI), this text covers GI50 and TGI for 8 compounds.

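Where inhibition never reached the appropriate level, the endpoint shown equals the highest concentration tested. Otherwise, values were interpolated linearly from a five-concentration, 48-hour dose response in 96-well plates. GI50: concentration for 50% inhibition of growth. TGI marks complete inhibition of growth.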

Test systems include U251 CNS; CCRF-CEM leukemia; HT29 colon; OVCAR-3 ovarian; K-562 leukemia; SK-MEL-2 melanoma; SW-620 colon; NCI-H522 lung; SN12C renal; MDA-MB-231 breast.
What all share (experiment): inhibition of tumour cell growth, NCI panel, 48 h

On to `COc1c2ccccc2c(OC)c2[nH]c(=O)ccc12`, for which the GI50 in the test on U251 CNS was 4 µM; in the test with CCRF-CEM leukemia, greater than 24.5 µM; with HT29 colon, 4.66 µM; with OVCAR-3 ovarian, 2.31 µM; in the test on K-562 leukemia, 6.39 µM; in the test with SK-MEL-2 melanoma, 4.92 µM. Further, the GI50 in the test with SW-620 colon was 4.2 µM; in the test on NCI-H522 lung, 7.73 µM; in the test with SN12C renal it was 2.13 µM; with MDA-MB-231 breast it was 9.75 µM. Further, the TGI in the test with U251 CNS was greater than 69 µM; in the test on CCRF-CEM leukemia it was greater than 100 µM; in the test with HT29 colon, greater than 57 µM; with OVCAR-3 ovarian, 6.89 µM; with K-562 leukemia, greater than 100 µM; in the test on SK-MEL-2 melanoma it was greater than 75.8 µM. Besides, the TGI in the test with SW-620 colon was greater than 63.4 µM; with NCI-H522 lung, greater than 100 µM; with SN12C renal, greater than 21.2 µM; with MDA-MB-231 breast, greater than 89.8 µM.
Consider `Br[Se]c1ccccn1`, for which the TGI with U251 CNS is 29 µM; in the test on CCRF-CEM leukemia, greater than 100 µM; in the test with HT29 colon, 53.9 µM; in the test on OVCAR-3 ovarian it was 28.9 µM; with K-562 leukemia, 72 µM; in the test with SK-MEL-2 melanoma, 30.1 µM. Also, the TGI worked out at 51.4 µM in the test on SW-620 colon, 30.4 µM in the test on NCI-H522 lung, 33.1 µM with SN12C renal and 31.5 µM with MDA-MB-231 breast.
With `O=C1CSC(=S)N1/N=C/c1ccc(Cl)c([N+](=O)[O-])c1`, the TGI in the test on U251 CNS was 35.3 µM; in the test on CCRF-CEM leukemia, greater than 100 µM; with HT29 colon it was greater than 100 µM; in the test on OVCAR-3 ovarian, 42.5 µM; in the test on K-562 leukemia, greater than 100 µM; in the test on SK-MEL-2 melanoma it was 92.7 µM. The TGI in the test on SW-620 colon was greater than 100 µM; with NCI-H522 lung, 36.8 µM; in the test with SN12C renal it was 56.3 µM; in the test on MDA-MB-231 breast it was 48 µM.
Take `CC1(C)[C@@H](NOCCCN)CC[C@]2(C)[C@H]3C(=O)C=C4[C@@H]5C[C@](C)(C(=O)O)CC[C@]5(C)CC[C@@]4(C)[C@]3(C)CC[C@@H]12`: the GI50 in the test on U251 CNS is 4.49 µM; with CCRF-CEM leukemia, 7.52 µM; in the test with HT29 colon, 3.45 µM; in the test with OVCAR-3 ovarian it was 4.17 µM; in the test on K-562 leukemia it was 2.57 µM; with SK-MEL-2 melanoma, 5.3 µM. The GI50 was 3.41 µM in the test with SW-620 colon, 2.08 µM in the test on NCI-H522 lung, 4.6 µM in the test on SN12C renal and 8.57 µM with MDA-MB-231 breast. Further, the TGI in the test on U251 CNS is 25.4 µM; in the test on CCRF-CEM leukemia it was greater than 100 µM; in the test on HT29 colon it was 16.1 µM; in the test on OVCAR-3 ovarian, 19.7 µM; in the test on K-562 leukemia it was 12.1 µM; in the test on SK-MEL-2 melanoma it was 26.6 µM. Moreover, the TGI was found to be 14 µM in the test with SW-620 colon, 4.85 µM in the test on NCI-H522 lung, 19.5 µM in the test with SN12C renal and 22.1 µM in the test on MDA-MB-231 breast.
In the case of `OC(c1cc(C(F)(F)F)nc2c(C(F)(F)F)cccc12)C1CCCCN1` (stereo not given), the GI50 in the test with U251 CNS is 1.79 µM; with CCRF-CEM leukemia, 3.04 µM; in the test with HT29 colon, 1.99 µM; in the test with OVCAR-3 ovarian, 2.19 µM; in the test with K-562 leukemia it was 3.12 µM; with SK-MEL-2 melanoma, 2.31 µM. Also, the GI50 is 1.85 µM in the test with SW-620 colon, 1.65 µM in the test with NCI-H522 lung, 1.78 µM in the test on SN12C renal and 1.78 µM with MDA-MB-231 breast. In addition, the TGI in the test with U251 CNS was 4.25 µM; in the test with CCRF-CEM leukemia, 9.13 µM; with HT29 colon, 3.92 µM; with OVCAR-3 ovarian, 4.37 µM; with K-562 leukemia, 6.47 µM; with SK-MEL-2 melanoma, 4.16 µM. The TGI with SW-620 colon amounted to 3.46 µM; in the test on NCI-H522 lung, 3.2 µM; in the test on SN12C renal it was 3.71 µM; with MDA-MB-231 breast it was 3.45 µM.
For the compound `C=C1C[C@H](O)[C@H](Br)C(C)(C)[C@@]12CCC(C)=C(Cl)C2`, the GI50 with U251 CNS was 0.367 µM; in the test with CCRF-CEM leukemia it was 0.445 µM; in the test on HT29 colon it was 0.26 µM; with OVCAR-3 ovarian, 0.509 µM; with K-562 leukemia, 0.443 µM; with SK-MEL-2 melanoma, 0.422 µM. Moreover, the GI50 in the test with SW-620 colon is 0.625 µM; with NCI-H522 lung it was 0.416 µM; in the test with SN12C renal it was 0.416 µM; in the test with MDA-MB-231 breast, 0.345 µM. Moreover, the TGI in the test with U251 CNS came to 12.2 µM; with CCRF-CEM leukemia, 7.92 µM; with HT29 colon it was 1.45 µM; in the test on OVCAR-3 ovarian, 4.13 µM; in the test with K-562 leukemia, 10.4 µM; in the test on SK-MEL-2 melanoma, 2.61 µM. The TGI is 11.3 µM in the test with SW-620 colon, 3.46 µM in the test with NCI-H522 lung, 6.61 µM in the test on SN12C renal and 2.33 µM in the test on MDA-MB-231 breast.
Turning to `COC(=O)[C@]12CC[C@@H](C)[C@H](C)[C@@H]1C1=CC[C@@H]3[C@@]4(C)C[C@@H](O)[C@H](O)[C@@](C)(CO)[C@@H]4[C@H](O)C[C@@]3(C)[C@]1(C)CC2`, the GI50 in the test on U251 CNS is 17.2 µM; in the test with CCRF-CEM leukemia, 7.77 µM; with HT29 colon it was 17.1 µM; in the test on OVCAR-3 ovarian, 12.8 µM; in the test on K-562 leukemia, 12.7 µM; with SK-MEL-2 melanoma, 22.6 µM. Further, the GI50 was 18.8 µM in the test on SW-620 colon, 20.9 µM in the test on NCI-H522 lung, 14.5 µM with SN12C renal and 13 µM in the test on MDA-MB-231 breast. Moreover, the TGI in the test on U251 CNS came out at 40.9 µM; in the test with CCRF-CEM leukemia, 36.9 µM; in the test on HT29 colon, 36.3 µM; in the test with OVCAR-3 ovarian, 26 µM; in the test on K-562 leukemia, 45.7 µM; in the test on SK-MEL-2 melanoma, 48.3 µM. For the same compound, the TGI in the test with SW-620 colon came out at 39.4 µM; with NCI-H522 lung, 43.3 µM; with SN12C renal, 30.6 µM; in the test on MDA-MB-231 breast, 29.8 µM.
On to `O=C(Nc1cccc(C(F)(F)F)c1)Nc1cccc(C(F)(F)F)c1`, for which the GI50 was 0.509 µM in the test on U251 CNS; 0.721 µM with CCRF-CEM leukemia; 0.84 µM in the test with HT29 colon; 0.408 µM in the test with OVCAR-3 ovarian; 0.431 µM in the test on K-562 leukemia; 1.84 µM in the test on SK-MEL-2 melanoma. Further, the GI50 in the test on SW-620 colon was 0.798 µM; in the test with NCI-H522 lung, 1.2 µM; in the test with SN12C renal, 0.923 µM; with MDA-MB-231 breast, 1.47 µM. Moreover, the TGI was 3.14 µM in the test with U251 CNS; 10.8 µM with CCRF-CEM leukemia; 6.06 µM with HT29 colon; 5.04 µM in the test on OVCAR-3 ovarian; 10.3 µM in the test on K-562 leukemia; 4.73 µM with SK-MEL-2 melanoma. Further, the TGI was 6.88 µM with SW-620 colon, 4.32 µM with NCI-H522 lung, 5.24 µM with SN12C renal and 3.29 µM with MDA-MB-231 breast.
